Measurements: PubChem BioAssay AID1919013 (Molecular Pharmacology Branch, DTP, NCI, 2023)

Tested on: LG0703-F498-PDC complex spheroid growth
Experiment: Anticancer human tumor LG0703-F498-PDC patient-derived lung adenocarcinoma cell line growth inhibition [AhR]
Conditions: for IC50: curve of first compound; for viability, T/C: stronger effect = lower value
Text: Multicellular complex tumor spheroid response to aryl hydrocarbon receptor antagonists in combination with a variety of drugs and investigational agents in selected tumor cell lines
The current study was undertaken to assess response to aryl hydrocarbon receptor antagonists in combination with standard-of-care drugs and investigational agents in solid tumor complex spheroid models. Complex spheroids include a stromal component modeled by human endothelial cells (HUVEC) and fibroblasts modeled by human mesenchymal stem cells (MSCs). The concentration ranges selected for each drug and investigational agent were based upon clinically achievable concentrations if the clinical Cmax of the agent was known.
Compounds. The drugs and investigational agents: BAY 2416964 (NSC825713), GNF351 (NSC835774), CH-223191 (NSC835775), CPI-455 (NSC825282), aza-TdCyd (NSC777586), decitabine (NSC127716), belinostat (NSC758774), entinostat (NSC756642), pevonedistat (NSC761192), tazemetostat (NSC777109), talazoparib (NSC765396), olaparib (NSC753686), selinexor (NSC780203), nedisertib (M3814, NSC802822), bortezomib (NSC756655), venetoclax (NSC766270), doxorubicin (NSC123127), elimusertib (BAY189344, NSC800525), ceralasertib (AZD6738, NSC777638), TAK-243 (NSC785004), alisertib (NSC759677), etoposide (NSC141540), topotecan (NSC609699), eribulin (NSC707389), gemcitabine (NSC613327), carboplatin (NSC241240), cisplatin (NSC119875), and SN-38 (NSC673596) were obtained from the National Cancer Institute (NCI) Developmental Therapeutics Program Chemical Repository (32). The FDA-approved anticancer drug set is available from the Developmental Therapeutics Program at https://dtp.cancer.gov/organization/dscb/obtaining/available plates.htm. […] The stock solutions were prepared in dimethyl sulfoxide (DMSO, Sigma-Aldrich, St. Louis, MO, cat. D2650), except for the platinum compounds which were prepared in saline (Quality Biological, Gaithersburg, MD, cat. 114-055-101), at 800-fold the tested concentration and stored at -70 degrees C prior to their use. All drugs and investigational agents were tested over a range starting from a high concentration at or near the clinical Cmax and decreasing in half-log increments. If the clinical Cmax for an agent had not been determined, the highest concentration tested was 10 microM (Table 1).
Cell Culture. All cells were maintained in an incubator at 37 degrees C and 5% CO2 with 95% humidity. The PDC lines were cultured according to standard operating procedures established by the NCI PDMR (https://pdmr.cancer.gov). Briefly, all PDCs were thawed and cultured in Matrigel-coated flasks prepared with a working solution of 1X Ham's F-12 nutrient mix, without supplementation (Invitrogen, Waltham, MA, cat. 11765054), 100 U/mL penicillin-streptomycin (Invitrogen, cat. 15140122), and 2.5% Matrigel (Corning Inc., Corning, NY, cat. 354248) for the first three passages. All PDCs were cultured in complete DMEM/F-12 media containing advanced DMEM/F-12 (Invitrogen, cat. 12634028), 4.9% defined fetal bovine serum, heat inactivated (HyClone Laboratories Inc., Logan, UT, cat. SH30070.03HI), 389 ng/mL hydrocortisone (Sigma-Aldrich, cat. H4001), 9.7 ng/mL human EGF recombinant protein (Invitrogen, cat. PHG0313), 23.4 microg/mL adenine (Sigma-Aldrich, cat. A2786), 97.3 U/mL penicillin-streptomycin (Invitrogen, cat. 15140122), 1.9 mM L-glutamine (Invitrogen, cat. 25030081), and 9.7 microM Y-27632 dihydrochloride (Tocris Bioscience, Bristol, United Kingdom, cat. 1254). The PDCs were cultured in complete DMEM/F12 media without 10 microM Y-27632 dihydrochloride for at least two passages prior to the screen. The established cell lines NCI-H1341 and […] were cultured in DMEM/F-12, HEPES (Invitrogen, cat. 11330032), 5% defined fetal bovine serum (HyClone Laboratories Inc., cat. SH30070.03), ITS premix universal culture supplement [insulin (5 microg/mL), transferrin (5 microg/mL), and selenious acid (5 ng/mL)] […]
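Note: luminescence taken as a proxy for viable cell amount.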
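Throughout, for viability, T/C: percent of DMSO vehicle control where 100% means growth equal to vehicle.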

CCc1c2c(nc3ccc(O)cc13)-c1cc3c(c(=O)n1C2)COC(=O)[C@]3(O)CC + Cc1cncc(-c2nc(NCCc3c[nH]c4ccccc34)c3ncn(C(C)C)c3n2)c1
IC50 (second compound 0.1 µM): 15.3 nM
IC50 (second compound 0.316 µM): 11.1 nM
IC50 (second compound 1 µM): 11.9 nM
IC50 (second compound 3.16 µM): < 0.949 nM
IC50 (second compound 10 µM): < 0.949 nM
viability, T/C (second compound 0.1 µM, first compound 0.000949 µM): 102%
viability, T/C (second compound 0.1 µM, first compound 0.003 µM): 82.4%
viability, T/C (second compound 0.1 µM, first compound 0.00949 µM): 55.5%
viability, T/C (second compound 0.1 µM, first compound 0.03 µM): 39.3%
viability, T/C (second compound 0.1 µM, first compound 0.0949 µM): 29.1%
viability, T/C (second compound 0.1 µM, first compound 0.3 µM): 19.2%
viability, T/C (second compound 0.316 µM, first compound 0.000949 µM): 92.1%
viability, T/C (second compound 0.316 µM, first compound 0.003 µM): 72.4%
viability, T/C (second compound 0.316 µM, first compound 0.00949 µM): 51.2%
viability, T/C (second compound 0.316 µM, first compound 0.03 µM): 37.1%
viability, T/C (second compound 0.316 µM, first compound 0.0949 µM): 25.2%
viability, T/C (second compound 0.316 µM, first compound 0.3 µM): 18.3%
viability, T/C (second compound 1 µM, first compound 0.000949 µM): 80.5%
viability, T/C (second compound 1 µM, first compound 0.003 µM): 76.5%
viability, T/C (second compound 1 µM, first compound 0.00949 µM): 49.7%
viability, T/C (second compound 1 µM, first compound 0.03 µM): 35.7%
viability, T/C (second compound 1 µM, first compound 0.0949 µM): 22.1%
viability, T/C (second compound 1 µM, first compound 0.3 µM): 13.6%
viability, T/C (second compound 3.16 µM, first compound 0.000949 µM): 44.5%
viability, T/C (second compound 3.16 µM, first compound 0.003 µM): 37.7%
viability, T/C (second compound 3.16 µM, first compound 0.00949 µM): 33%
viability, T/C (second compound 3.16 µM, first compound 0.03 µM): 29.1%
viability, T/C (second compound 3.16 µM, first compound 0.0949 µM): 16.3%
viability, T/C (second compound 3.16 µM, first compound 0.3 µM): 11.9%
viability, T/C (second compound 10 µM, first compound 0.000949 µM): 1.16%
viability, T/C (second compound 10 µM, first compound 0.003 µM): 1.16%
viability, T/C (second compound 10 µM, first compound 0.00949 µM): 2.25%
viability, T/C (second compound 10 µM, first compound 0.03 µM): 1.82%
viability, T/C (second compound 10 µM, first compound 0.0949 µM): 1.25%
viability, T/C (second compound 10 µM, first compound 0.3 µM): 1.61%

COc1cc(Nc2ncc3c(n2)-c2ccc(Cl)cc2C(c2c(F)cccc2OC)=NC3)ccc1C(=O)O + Cc1cncc(-c2nc(NCCc3c[nH]c4ccccc34)c3ncn(C(C)C)c3n2)c1
IC50 (second compound 0.1 µM): 3970 nM
IC50 (second compound 0.316 µM): 5260 nM
IC50 (second compound 1 µM): 2830 nM
IC50 (second compound 3.16 µM): < 31.6 nM
IC50 (second compound 10 µM): < 31.6 nM
viability, T/C (second compound 0.1 µM, first compound 0.0316 µM): 88.6%
viability, T/C (second compound 0.1 µM, first compound 0.1 µM): 77.1%
viability, T/C (second compound 0.1 µM, first compound 0.316 µM): 65.4%
viability, T/C (second compound 0.1 µM, first compound 1 µM): 65.8%
viability, T/C (second compound 0.1 µM, first compound 3.16 µM): 60.2%
viability, T/C (second compound 0.1 µM, first compound 10 µM): 35%
viability, T/C (second compound 0.316 µM, first compound 0.0316 µM): 81.8%
viability, T/C (second compound 0.316 µM, first compound 0.1 µM): 80.5%
viability, T/C (second compound 0.316 µM, first compound 0.316 µM): 58.9%
viability, T/C (second compound 0.316 µM, first compound 1 µM): 78.2%
viability, T/C (second compound 0.316 µM, first compound 3.16 µM): 58.1%
viability, T/C (second compound 0.316 µM, first compound 10 µM): 38.2%
viability, T/C (second compound 1 µM, first compound 0.0316 µM): 94.4%
viability, T/C (second compound 1 µM, first compound 0.1 µM): 70.7%
viability, T/C (second compound 1 µM, first compound 0.316 µM): 63%
viability, T/C (second compound 1 µM, first compound 1 µM): 63.7%
viability, T/C (second compound 1 µM, first compound 3.16 µM): 55.9%
viability, T/C (second compound 1 µM, first compound 10 µM): 35.1%
viability, T/C (second compound 3.16 µM, first compound 0.0316 µM): 45.7%
viability, T/C (second compound 3.16 µM, first compound 0.1 µM): 33.3%
viability, T/C (second compound 3.16 µM, first compound 0.316 µM): 38.1%
viability, T/C (second compound 3.16 µM, first compound 1 µM): 34.6%
viability, T/C (second compound 3.16 µM, first compound 3.16 µM): 18.9%
viability, T/C (second compound 3.16 µM, first compound 10 µM): 10.2%
viability, T/C (second compound 10 µM, first compound 0.0316 µM): 1.81%
viability, T/C (second compound 10 µM, first compound 0.1 µM): 1.7%
viability, T/C (second compound 10 µM, first compound 0.316 µM): 2.07%
viability, T/C (second compound 10 µM, first compound 1 µM): 1.87%
viability, T/C (second compound 10 µM, first compound 3.16 µM): 1.84%
viability, T/C (second compound 10 µM, first compound 10 µM): 3.35%
